How the values were obtained:
[1] = Intrinsic clearance in human liver microsomes; format: ADME, Microsome; details: for microsomal CLint: liver microsomes, read-out: CLH
[2] = Clearance in Han Wistar rat at 2 umol/kg, po or 1 umol/kg, iv; details: in vivo
[3] = Efflux ratio of apparent permeability in human Caco2 cells at 10 uM at pH 7.4; format: ADME, cell-based; details: Caco-2, pH 7.4
[4] = Intrinsic clearance in rat hepatocytes assessed per 10^-6 cells; format: ADME, cell-based, Hepatocyte
[5] = biological target: GTPase KRas (Homo sapiens, UniProt P01116, G12C); assay: Inhibition of GDP bound biotinylated human C-terminal Avi/His6-tagged KRAS G12C mutant (1 to 166 residues) expressed in Escherichia coli BL21 (DE3) assessed as reduction in SOS1-mediated GDP/GTP nucleotide exchange by preventing recognition between KRAS G12C mutant and Ras binding domain of N-terminal Avi/GST-tagged Raf-1 (51 to 149 residues) preincubated for 4 hrs followed by SOS1 and GTPgammaS addition by FRET assay
[6] = Volume of distribution at steady state in Han Wistar rat at 2 umol/kg, po or 1 umol/kg, iv; details: in vivo
[7] = in vivo; details: Han Wistar, rat, po, 2 umol/kg
[8] = GSH reactivity in PBS buffer assessed as half life at pH 7.4 and 37 degree C in presence of glutathione; format: physicochemical; details: PBS buffer with glutathione
[9] = Distribution coefficient, log D of compound at pH 7.4; format: physicochemical; details: octanol/water, read-out: logD

Compound	microsomal CLint [1] [µL/min/mg]	clearance [2] [mL/min/kg]	efflux ratio at 10 µM [3]	hepatocyte intrinsic clearance [4] [µL/min]	IC50 [5] [nM]	Vd [6] [L/kg]	bioavailability [7] [%]	half-life [8] [h]	logD [9]	Intrinsic clearance in human liver microsomes ([1]; microsomes) [µL/min/mg]
C=CC(=O)N1C[C@@H]2COc3cnc4cc(-c5c(O)cccc5F)c(Cl)cc4c3N2C[C@H]1C	32	7	0.7	42	52	0.6	96	5.42	3.8	
C=CC(=O)N1CCN2c3c(cnc4cc(-c5c(C)ccc6[nH]ncc56)c(Cl)cc34)OC[C@H]2C1 (single isomer, unassigned; atropisomer 1)				174					4.2	165
C=CC(=O)N1CCN2c3c(cnc4cc(-c5c(O)cccc5F)c(Cl)cc34)NC(=O)[C@H]2C1	34		17.9	11	73				3	
C=CC(=O)N1CCN2c3c(cnc4cc(-c5c(O)cccc5F)c(Cl)cc34)N(C)C(=O)[C@H]2C1	24		0.9	7	150				3	
C=CC(=O)N1CCN(c2ncnc3cc(-c4c(C)ccc5[nH]ncc45)c(Cl)cc23)CC1	38			56	496				3.5	
C=CC(=O)N1CCN2c3c(cnc4cc(-c5c(C)ccc6[nH]ncc56)c(Cl)cc34)OC[C@@H]2C1 (single isomer, unassigned; atropisomer 2)	103			75	610				4.3	
C=CC(=O)N1C[C@@H]2COc3cnc4cc(-c5c(O)cccc5F)c(Cl)cc4c3N2C[C@@H]1C	100			74	7650			9.75	3.7	
C=CC(=O)N1CCN2c3c(cnc4cc(-c5c(C)ccc6[nH]ncc56)c(Cl)cc34)OCC[C@@H]2C1	81			104	4340					
C=CC(=O)N1CCN2c3c(cnc4cc(-c5c(C)ccc6[nH]ncc56)c(Cl)cc34)OCC[C@H]2C1	> 300			102	627					

— ChEMBL document CHEMBL4402559, “Structure-Based Design and Pharmacokinetic Optimization of Covalent Allosteric Inhibitors of the Mutant GTPase KRASG12C” (J Med Chem, 2020)
